Non-standard residues stand in square brackets, D forms with d. No end group written: not given here.
B1: PPA1-DOX, conjugate of PPA1 with doxorubicin through an acid-sensitive hydrazone linker (peptide)
peptide: [dN][dY][dS][dK][dP][dT][dD][dR][dQ][dY][dH][dF]K
modifications: not fully specified (residue 13); also: triazole from click, hydrazone to doxorubicin
notes: D-peptide, printed as nyskptdrqyhf-Lys(N3); the last lysine carries the azide used for the conjugation to DOX; also called compound 5; PPA-DOX; source: synthetic: azide end-functionalized PPA1 peptide joined to hydrazine-DOX by click chemistry, purified by HPLC
B2: PPA1, proteolysis resistant PD-L1-targeted peptide (peptide)
peptide: NYSKPTDRQYHFK
modifications: all residues in D-form
notes: D-peptide, printed in lower case (nyskptdrqyhfk); also called free PPA1; PD-L1 targeting polypeptide; source: synthetic peptide, bought: Chinapeptides Co., Ltd

Key:
[1] = system: heart, liver and kidney; assay: H&E histology of major organs of tumor-bearing mice; type: in vivo, Balb/c mice; conditions: CT26-bearing mice, i.p. twice a week for two weeks, n = 7
[2] = Cleavage assay of PPA1-DOX in mouse serum; type: in vitro ADME; conditions: mouse serum pH 7.4, 37°C, 24 h, under nitrogen, 1 mg/mol (so in the source) in 2 mL; HPLC (HILIC), UV 254 nm
Procedure: (§1) To verify the acid sensitivity of hydrazone bond linking the PPA1 to DOX, a series of PPA1-DOX and DOX solutions with different concentrations were configured in the sodium phosphate buffer (pH= 9.0), respectively. A 5 μL aliquot of each sample was injected onto an HPLC system with ultraviolet detector wavelength to determine 254 nm absorbance values, using hydrophilic interaction chromatography (HILIC) column separation (Waters, XBridge BEH HILIC XP Column, 2.1 mm, 50 mm, 2.5 µm). Through simulating the linearity fitting from disposed concentrations and detected absorbance values, standard curves of PPA1-DOX and DOX were obtained, respectively.
(§2) Preparing two partials of PPA1-DOX (1 mg/mol) were dissolved into the 2 mL sodium phosphate buffer (pH = 5.0) and 2 mL mouse serum (pH = 7.4), respectively, and the vials were capped and kept 37°C under nitrogen with continuously slight oscillaation. Samples (20 μL) were spiked and analyzed by HPLC under the 254 nm absorbance value after incubating 0.5 h, 1 h, 2 h, 4 h, 12 h and 24 h. For evaluation of hydrazone bond cleavage data was considered the disappearance of the major peak related to the standard curves of PPA1-DOX and DOX.

[3] = Cleavage assay of PPA1-DOX in acidic sodium phosphate buffer; type: physicochemical; conditions: sodium phosphate buffer pH 5.0, 37°C, sampled 0.5-24 h, under nitrogen, 1 mg/mol (so in the source) in 2 mL; HPLC (HILIC), UV 254 nm
Procedure: as §1, §2

[4] = Body weight of CT26 tumor-bearing mice; conditions: i.p. twice a week for two weeks, DOX 5 mg/kg, 5-Fu 10 mg/kg, PPA1 15 mg/kg, PPA1-DOX 20 mg/kg, after day 7, n = 7
Description: Six-week-old female Balb/c mice were inoculated subcutaneously with 5 × 10^6 CT26 cells in the left armpit. The mice were randomly divided into groups with 7 mice in each group after the tumor reached about 100 mm^3. The mice were housed in animal house of Shenzhen University. For the survival experiment, the mice were killed when the tumor reached about 1500 mm^3. The tumor size and body weight were monitored every day after the injection of the drugs. At the end of the experiment, the tumors and major organs (heart, liver, spleen, lung, and kidney) were collected for immunohistochemistry and/or histological tests. For the PPA1-DOX distribution experiment, the tumors and major organs were subsequently analyzed with an in vivo imaging system (IVIS Spectrum, PerkinElmer).
DOX at 5 mg/kg, 5-Fu at 10 mg/kg, PPA1 and RAN at 15mg/kg, PPA1-DOX and RAN-DOX at 20 mg/kg were injected intraperitoneally to mice twice a week for two weeks. […] For the PPA1-DOX distribution experiment, RhB-PPA1-DOX and RhB-RAN-DOX at 20mg/kg were injected into the tail vein of the mice.

[5] = system: CT26 tumor; assay: Antitumor activity in CT26-bearing mice; type: in vivo, Balb/c mice; conditions: i.p. twice a week for two weeks
[6] = system: intratumoral CD4+ and CD8+ T cells; assay: CD4/CD8 immunohistochemistry of tumor tissues; type: in vivo, Balb/c mice; conditions: CT26-bearing mice, compared with RNA-DOX-, DOX- or 5-FU-treated mice
Procedure: The tumor tissues were fixed in 4% paraformaldehyde, gradually dehydrated, embedded in paraffin, cut into 4um sections, and subjected for hematoxylin/eosin staining. For immuno-histochemical staining of CD4/CD8 positive cells, tissue sections processed through deparaffinage, rehydration and antigen plerosised, and endogenous peroxidase activity blockade, were incubated with mouse anti-human CD4(1:300, Proteintech, USA), mouse anti-human CD8(1:200, Proteintech, USA) at 4°C overnight, respectively. The secrions were then washed and incubated with a HRP-labeled secondary antibody at RT for 40 min. After color development through incubation with diaminobenzidine, the sections were counterstained with hematoxylin. The stained sections were observed and imaged under a light microscope.

[7] = biological target: Programmed death-ligand 1 (PD-L1), Tag1-PD-L1 (UniProt Q9NZQ7 19-238); assay: AlphaScreen or HTRF; Cisbio HTRF PD1/PD-L1 binding assay kit; Tag1-PD-L1 and Tag2-PD1 detected with anti-Tag1-Europium (donor) and anti-Tag2-XL665 (acceptor); peptide or conjugate varied as blocker; IC50 from a sigmoidal (Hill) fit; n = 3; conditions: both partners purified
Sequence of Programmed death-ligand 1 (PD-L1), Tag1-PD-L1 (Q9NZQ7 19-238): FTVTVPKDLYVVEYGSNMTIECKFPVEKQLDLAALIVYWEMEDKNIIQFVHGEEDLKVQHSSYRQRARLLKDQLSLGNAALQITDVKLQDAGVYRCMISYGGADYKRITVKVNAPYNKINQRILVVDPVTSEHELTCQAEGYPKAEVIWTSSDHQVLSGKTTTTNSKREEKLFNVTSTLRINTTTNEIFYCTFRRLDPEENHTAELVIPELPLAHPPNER

| Molecule | toxicity to major organs (H&E stained sections) [1] | IC50 [7] | other results |
| --- | --- | --- | --- |
| O=c1[nH]cc(F)c(=O)[nH]1 [Compound 5-Fu] | severe damages |  |  |
| COc1cccc2c1C(=O)c1c(O)c3c(c(O)c1C2=O)C[C@@](O)(C(=O)CO)C[C@@H]3O[C@H]1C[C@H](N)[C@H](O)[C@H](C)O1 [DOX, doxorubicin] | severe damages |  |  |
| COc1cccc2c1C(=O)c1c(O)c3c(c(O)c1C2=O)C[C@@](O)(C(CO)=NNC(=O)CCCc1cn(CC(=O)NCCCC[C@@H](NC(=O)[C@@H](Cc2ccccc2)NC(=O)[C@@H](Cc2c[nH]cn2)NC(=O)[C@@H](Cc2ccc(O)cc2)NC(=O)[C@@H](CCC(N)=O)NC(=O)[C@@H](CCCNC(=N)N)NC(=O)[C@@H](CC(=O)O)NC(=O)[C@H](NC(=O)[C@H]2CCCN2C(=O)[C@@H](CCCCN)NC(=O)[C@@H](CO)NC(=O)[C@@H](Cc2ccc(O)cc2)NC(=O)[C@H](N)CC(N)=O)[C@H](C)O)C(=O)O)nn1)C[C@@H]3O[C@H]1C[C@H](N)[C@H](O)[C@H](C)O1 [PPA1-DOX] | rather low toxicity |  | stability of conjugate in mouse serum (HPLC peaks) [2]: little change on peaks; hydrazone cleavage in acidic environment [3]: rapidly cleaved into PPA1 and DOX; body weight change [4]: no remarkable body weight loss; survival time ([5]; PPA1-DOX 20 mg/kg, superior to free PPA1 and RAN-DOX, mice killed at tumor about 1500 mm^3, n = 7): longer survival time; tumor growth ([5]; PPA1-DOX and RAN-DOX 20 mg/kg, n = 7): effective suppression of tumor growth; infiltration of CD4+ and CD8+ T cells in tumors [6]: obviously increased infiltration |
| C[C@H](O)[C@@H](NC(=O)[C@H]1CCCN1C(=O)[C@@H](CCCCN)NC(=O)[C@@H](CO)NC(=O)[C@@H](Cc1ccc(O)cc1)NC(=O)[C@H](N)CC(N)=O)C(=O)N[C@H](CC(=O)O)C(=O)N[C@H](CCCNC(=N)N)C(=O)N[C@H](CCC(N)=O)C(=O)N[C@H](Cc1ccc(O)cc1)C(=O)N[C@H](Cc1c[nH]cn1)C(=O)N[C@H](Cc1ccccc1)C(=O)N[C@H](CCCCN)C(=O)O [PPA1] | rather low toxicity |  |  |
| B1 |  | 281 nM |  |
| B2 |  | 174 nM |  |

— PMC8631515 (Frontiers in Oncology, 2021)
